Consider 3 compounds from BindingDB's records for doi:10.1021/jm00080a030 (Abbott Laboratories, 1992).

In this test the target is C5a anaphylatoxin chemotactic receptor 1 (Homo sapiens) (UniProt P21730). The experiment in a line: Potency as the maximal lysosomal myeloperoxidase (MPO) release in PMNL assay.
Chain of C5a anaphylatoxin chemotactic receptor 1 (Homo sapiens) (P21730 whole entry, looked up): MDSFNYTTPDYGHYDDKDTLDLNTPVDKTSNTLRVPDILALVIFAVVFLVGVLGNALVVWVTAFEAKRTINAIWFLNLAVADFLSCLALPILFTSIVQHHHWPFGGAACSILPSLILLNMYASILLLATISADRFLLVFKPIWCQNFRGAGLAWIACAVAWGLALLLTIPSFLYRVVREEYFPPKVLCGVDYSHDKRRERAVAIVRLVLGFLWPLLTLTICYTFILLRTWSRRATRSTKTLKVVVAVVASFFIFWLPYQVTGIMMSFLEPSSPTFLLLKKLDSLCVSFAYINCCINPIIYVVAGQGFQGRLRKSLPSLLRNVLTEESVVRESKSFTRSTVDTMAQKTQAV

The EC50 is the concentration needed to bring the measured effect to its halfway point. Low readings indicate greater potency, high ones weaker potency. Regarding Ac-FKDMQLGR-OH, it took 35 µM to reach a half-maximal effect (EC50).
On to `CSCC[C@H](NC(=O)[C@H](CC(=O)O)NC(=O)[C@H](CCCCN)NC(=O)[C@@H](N)Cc1cccs1)C(=O)N[C@@H](CCC(N)=O)C(=O)N[C@@H](CC(C)C)C(=O)NCC(=O)N[C@@H](CCCNC(=N)N)C(=O)O`, for which the concentration giving a half-maximal response (EC50) was determined as 200 µM.
In the case of H-LRANISFKDMQLGR-OH, the response was half-maximal at 60 µM (EC50).
